This note sets out measurements from patent publication US10028990B2, “Functional foods and beverages with synergistic properties to promote homeostasis” (JUSTBIO INC., priority 2011, dated 2018).

Assay [1] is described as follows: ORAC (Oxygen Radical Absorbance Capacity) test. Conditions: FIG. 46; combined with maple syrup. The method, then: The antioxidant capacity of formulations and beverages was determined with the ORAC (Oxygen Radical Absorbance Capacity) test. ORAC assays were performed as previously described (Prior et al, 2005). […] These free radicals are generated by the exposition of flurorescein to AAPH. […] The oxidation process is a kinetic reaction that is measured fluorescence levels (excitation: 485 nm, emission: 528 nm) over time using a Synergy HT (Biotek) microplate reader. Area under the curves (AUC) from each compound tested are calculated and compared to the blank and the control of reference the vitamin E analog 6-Hydroxy-2,5,7,8 Teramethylchromane-2-carboxylic acid (Trolox). ORAC values are expressed as μmol of Trolox equivalent per ml (μmol TE/ml) of compound tested.

Assay [2] concerns the target T1, TLR2 (Homo sapiens, UniProt O60603+Q15399).
T1 construct: TLR2-dependent ROS production in Cal27 exposed for 30 minutes to various concentrations of AAPH; host or cells: CAL27
Kind of assay: TLR2 activation with Pam3Cys in Cal27 cells under low or high oxidative stress. It is filed as cell-based. The settings on record: FIG. 34, Pam3Cys 500 ng/ml. The method, then: Cell lines (CAL27, SH-SY5Y) used for this assay were plated in plaque assays at a density of 50,000-100,000 cells per well. Colorimetric MTT (3-(4,5-dimethylthiazol-2-yl)-2,5-diphenyl tetrazolium bromide) was dissolved in HBSS buffer to obtain a final concentration of 0.5 mg/ml per well. Cell plates were incubated for 2 hours at 37° C. Conditioned medium was then removed, and acid-isopropanol (0.04N HCl in isopropanol) was added to all wells. HCL was used as positive control to induce cell death. Plates were read at 530 nm/630 nm in a Synergy Biotek machine. […] This method is an adaptation of a previously described assay (Mossman, 1983).
All cell lines were obtained from the American Type Culture Collection (ATCC, Manassas, US). In some experiments, cells were transferred to a 96 wells plate and treated with different concentration of TLR2 agonist synthetic triacylated lipoprotein PAM3CSK4 (InvivoGen) starting by 500 ng/ml final concentration to activate TLR2.
(§1) Cellular ROS levels were obtained by measuring the oxidation of CM-H2DCFDA (5-(and 6)-chlromethyl-20,70-dichlorodihydrofluresceindiacetate; Invitrogen) a cell-permeant indicator. Cal27, HEK 293 and SH-SY5Y were plated in 96 well plates at a cell density of 25000 cells per well. Cells were treated for 1 hour with 5 μM CM-H2DCFDA. After removing the CDFDA solution, cells were treated with various adaptogenic formulations prepared with ROS buffer (HBSS containing 2% FBS). After 30 min of exposure with samples, a first reading was taken using the synergy HT (Biotek) plate reader. Various concentrations of AAPH (100 mM, 40 mM, 16 mM, 6.4 mM and 2.5 mM) were then added, and readings (excitation: 485 nm, emission: 530 nm) were taken every 30 minutes for 2 hours. The fluorescence intensity is an indicator of H2O2 intracellular level so values are expressed in Relative Fluorescence Unit (RFU).
ATP intracellular levels were measured from whole cell lysates obtained through a freeze-thaw cycle, whereas ATP secreted from cells were measured from conditioned cell culture supernatants. Both intracellular and secreted ATP using measured using an ATP determination kit purchased from Invitrogen (Molecular Probes). ATP levels were detected at luminescence 560 nm. ATP levels were normalized to untreated control and were expressed as % ATP levels.

Assay [3] relates to SH-SY5Y neurons. Put plainly: ROS production by dopaminergic SH-SY5Y neurons exposed to supernatant of Cal27 cells. It is filed as cell-based, Human. The method, then:
as §1
This assay mimics the impact of mucosal cells on subepithelial neuronal cells.

Residues, ends and D or L forms follow the SMILES beside them.

T1 sequence (O60603 21-784): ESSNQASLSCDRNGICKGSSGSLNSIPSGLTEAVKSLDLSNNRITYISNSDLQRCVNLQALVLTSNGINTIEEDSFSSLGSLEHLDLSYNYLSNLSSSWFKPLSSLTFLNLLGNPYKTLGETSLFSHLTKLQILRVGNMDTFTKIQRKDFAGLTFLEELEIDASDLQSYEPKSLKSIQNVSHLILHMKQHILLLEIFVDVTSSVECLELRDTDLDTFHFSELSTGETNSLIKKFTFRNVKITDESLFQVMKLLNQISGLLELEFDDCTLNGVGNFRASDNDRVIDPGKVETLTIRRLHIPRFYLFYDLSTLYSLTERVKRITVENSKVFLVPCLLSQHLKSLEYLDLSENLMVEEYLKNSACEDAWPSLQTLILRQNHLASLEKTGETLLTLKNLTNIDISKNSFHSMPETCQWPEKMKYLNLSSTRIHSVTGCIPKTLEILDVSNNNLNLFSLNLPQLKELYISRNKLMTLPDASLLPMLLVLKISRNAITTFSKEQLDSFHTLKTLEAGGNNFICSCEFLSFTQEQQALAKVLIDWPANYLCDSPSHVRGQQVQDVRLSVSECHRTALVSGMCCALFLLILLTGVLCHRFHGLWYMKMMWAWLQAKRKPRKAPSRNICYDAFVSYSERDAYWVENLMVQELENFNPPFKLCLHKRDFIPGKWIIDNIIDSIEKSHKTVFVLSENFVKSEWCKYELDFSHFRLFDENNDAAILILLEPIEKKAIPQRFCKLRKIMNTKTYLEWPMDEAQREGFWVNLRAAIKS
T1 sequence (Q15399 25-786): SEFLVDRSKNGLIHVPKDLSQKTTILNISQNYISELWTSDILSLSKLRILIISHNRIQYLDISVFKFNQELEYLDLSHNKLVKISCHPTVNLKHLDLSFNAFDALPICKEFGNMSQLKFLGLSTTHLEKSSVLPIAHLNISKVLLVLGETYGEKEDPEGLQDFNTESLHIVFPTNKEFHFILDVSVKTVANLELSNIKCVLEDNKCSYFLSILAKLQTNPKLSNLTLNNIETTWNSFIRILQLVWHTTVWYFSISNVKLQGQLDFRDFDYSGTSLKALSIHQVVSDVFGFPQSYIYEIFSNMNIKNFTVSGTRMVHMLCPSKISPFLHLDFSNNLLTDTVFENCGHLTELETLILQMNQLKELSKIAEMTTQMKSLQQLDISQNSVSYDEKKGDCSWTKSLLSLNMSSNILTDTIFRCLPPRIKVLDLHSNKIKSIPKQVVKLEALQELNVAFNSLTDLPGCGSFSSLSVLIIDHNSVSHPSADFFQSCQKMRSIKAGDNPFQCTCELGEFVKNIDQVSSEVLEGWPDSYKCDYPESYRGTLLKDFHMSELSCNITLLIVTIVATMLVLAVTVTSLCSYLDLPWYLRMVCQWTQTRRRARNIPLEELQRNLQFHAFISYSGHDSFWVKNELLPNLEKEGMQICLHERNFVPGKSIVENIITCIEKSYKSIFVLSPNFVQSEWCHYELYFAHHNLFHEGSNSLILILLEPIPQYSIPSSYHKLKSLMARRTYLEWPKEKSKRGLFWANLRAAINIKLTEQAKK

In the case of `C=C1C[C@@]23CC[C@H]4[C@@](C)(CCC[C@@]4(C)C(=O)O[C@@H]4O[C@H](CO)[C@@H](O)[C@H](O)[C@H]4O)[C@@H]2CC[C@]1(O[C@@H]1O[C@H](CO)[C@@H](O)[C@H](O)[C@H]1O[C@@H]1O[C@H](CO)[C@@H](O)[C@H](O)[C@H]1O)C3` [stevioside], the “synergy in combination with maple syrup (ORAC versus sum of SE+ingredient)” value (“synergy … (ORAC versus sum of SE+ingredient)” below) in assay [1] is listed as “act in synergy”.

Regarding `OC[C@H]1O[C@H](O[C@]2(CCl)O[C@H](CCl)[C@@H](O)[C@@H]2O)[C@H](O)[C@@H](O)[C@H]1Cl` [sucralose], the “synergy … (ORAC versus sum of SE+ingredient)” value in assay [1] is reported as “does not create this synergy”.

In the case of `C=C1C[C@@]23CC[C@H]4[C@@](C)(CCC[C@@]4(C)C(=O)O[C@@H]4O[C@H](CO)[C@@H](O)[C@H](O)[C@H]4O)[C@@H]2CC[C@]1(O[C@@H]1O[C@H](CO)[C@@H](O)[C@H](O[C@@H]2O[C@H](CO)[C@@H](O)[C@H](O)[C@H]2O)[C@H]1O[C@@H]1O[C@H](CO)[C@@H](O)[C@H](O)[C@H]1O)C3` [Rebaudiside A, Rebaudioside A], the “synergy … (ORAC versus sum of SE+ingredient)” value in assay [1] is “act in synergy”.

Consider `COC(=O)[C@H](Cc1ccccc1)NC(=O)[C@@H](N)CC(=O)O` [aspartame] (H-Asp-Phe-OMe), for which the “synergy … (ORAC versus sum of SE+ingredient)” value in assay [1] is “does not create this synergy”.

As for Pam3Cys, in assay [2] (6.4 mM and 16 mM AAPH), the “impact on ROS production” value is reported as “no significant impact” and the “impact on mitochondrial activity” value is reported as “no significant impact”. Also, the ATP secretion result in assay [2] (cells without AAPH) is “slightly increased ATP secretion”. Moreover, the ATP production result in assay [2] (high oxidative stress (16 mM AAPH)) is recorded as “increases ATP production”. Moreover, the “ROS production by dopaminergic neurons upon TLR2 activation of Cal27 cells” value in assay [3] (FIG. 37, 50 ng/ml of Pam3Cys) was “reduce ROS production”. For the same molecule, the “neuroprotective role upon TLR2 activation of Cal27 cells” value in assay [3] (higher dose of Pam3Cys (250 or 500 ng/ml)) was “did not have this neuroprotective role”.
